Series [1] has as its system PAR-4. Conditions: mouse embryonic fibroblast (MEF) cells, at micromolar levels; cited from earlier work.
Series [2] has as its system PAR-4. The series can be described thus: PAR-4 secretion assay, Western blot of conditioned media and lysate. The format is cell-based, mouse. The procedure: Material: DMEM media, FBS, Mouse embryonic fibroblast cells, PAR-4 antibody, Antirabbit IgG-HRP, Collagen A1 antibody, B-actin antibody, Antimouse IgG HRP
Six well plate seeded (2 ml per well) with Mouse embryonic fibroblast cells in DMEM+10% FBS. The plate was incubated for 16-18 hrs, 37° C. 5% CO2.
Drugs to be tested are diluted with suitable solvent to obtain 25 mM concentration. Media from cells is discarded and replaced with DMEM media with 0.1% FBS. Compound added to the cells at final concentration of 25 μM.
Conditioned media (CM-supernatant) is collected from each well and centrifuged at 1000 rpm/5 mins to remove cell debris. After centrifugation the media was poured in concentration filters (Amicon ultracentrifuge tube with cutoff 10 Kda) and again centrifuged at 4500 rpm/15 mins at 4° C. The media was concentrated to 100 μl and then mixed with 50 μl of loading dye. The mixture was maintained in a 100° C. dry bath/water bath for 10 mins. SDS-PAGE and a western blot was performed of the samples using broad range molecular weight marker.
(In general: In western blotting, separated proteins are transferred to a membrane and probed.)

The test system of series [3] is Mouse embryonic fibroblast cells. The series can be described thus: Assay to analyse non-cytotoxic concentration (CellTiter 96 AQueous One cell proliferation assay). The format is cell-based. Conditions: up to 48 hours, highest concentration of 125 μM. How it is done: Mouse embryonic fibroblast cells were plated in 96-well cell culture plates (2×10^4 cells/well) and were treated with drug/s at various concentrations. […] After the incubation anti-proliferative activity of test compounds was measured using ProMega Cell Titer aqueous one solution cell proliferation assay kit, viz. CellTiter 96® AQueous One Solution Reagent. Cells were incubated for 1-4 hours at 37° C., 5% CO2 incubator and absorbance was measured at 490 nm using a plate reader. IC50 values were determined by plotting compound concentration versus cell viability.

SMILES strings stand for the structures.

Take `COc1ccc(C2=N[C@@H](c3ccc(Cl)cc3)[C@@H](c3ccc(Cl)cc3)N2C(=O)N2CCNC(=O)C2)c(OC(C)C)c1` [Nutlin-3a]: the “stimulation of PAR-4 secretion” value in the series on PAR-4 [1] is reported as “stimulated PAR-4 secretion at micromolar levels”.
On to `CO/N=C(\C(=O)N[C@@H]1C(=O)N2C(C(=O)O)=C(COC(N)=O)CS[C@H]12)c1ccco1` [Cefuroxime, (6R, 7R)-3-{[(aminocarbonyl)oxy]methyl}-7-{[(2Z)-2-(2-furyl)-2-(methoxyimino)acetyl]amino}-8-oxo-5-thia-1-azabicyclo [4.2.0]oct-2-ene-2-carboxylic acid], for which the “PAR-4 secretion (FIG. 1, Western blot)” value in the series with PAR-4 [2] (mouse embryonic fibroblast cells) is listed as “increased PAR-4 secretion”. Further, in the series on PAR-4 [2] (mouse embryonic fibroblast cells (lysate), compared to DMSO control, Western blot, compound at 25 μM), the “increase in the secretion of intracellular PAR-4” value is “about 2 fold”. For the same molecule, in the series on PAR-4 [2] (mouse embryonic fibroblast cells, compared to DMSO control, Western blot, compound at 25 μM), the “increase in the secretion of PAR-4 in the conditioned media” value is on record as 4-5 fold. Also, the “toxicity in Mouse Embryonic fibroblast cells” value in series [3] was “does not show toxicity”.

These data come from patent US11129836B2, “PAR-4 agonists for the treatment of cancer” (Cipla Limited, priority 2016, dated 2021).
